In PubChem BioAssay AID588375 (Sanford-Burnham Center for Chemical Genomics, 2011):
Activity calls are given as the source filed them.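 The calls were made as follows: active = IC50 below 100 µM in the TR-FRET assay, unless also active in the caspase-3 counter assay; inactive = the rest, including compounds also active in caspase-3.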

Target: Caspase-3 (Homo sapiens) (UniProt P42574)
Assay: inhibition of recombinant caspase-3 activity – biochemical, luminescence, Caspase-Glo 3/7, set 2, counter-screen for UBC13 polyubiquitin inhibitor project, SAR follow-up (AID 588375)
Details: recombinant caspase-3, Caspase-Glo luminescence, 60 min

Caspase-3 (Homo sapiens), sequence (P42574 whole entry, looked up): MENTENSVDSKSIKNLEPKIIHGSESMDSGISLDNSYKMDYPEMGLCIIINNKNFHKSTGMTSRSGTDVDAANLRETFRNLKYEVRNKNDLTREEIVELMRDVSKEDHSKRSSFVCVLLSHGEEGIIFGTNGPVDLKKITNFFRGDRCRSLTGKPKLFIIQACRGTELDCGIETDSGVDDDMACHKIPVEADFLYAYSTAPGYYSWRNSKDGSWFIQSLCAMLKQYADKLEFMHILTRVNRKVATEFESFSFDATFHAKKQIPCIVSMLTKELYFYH

SMILES | IC50
CC1(C)Cc2c(sc(NC(=O)C(=O)NCC3CCCO3)c2C(N)=O)CO1 (configuration not stated) | > 100 µM (inactive)
Cc1nc2ccccc2n1C1CCN(CC(=O)Nc2ccccc2Oc2ccccc2)CC1 | > 100 µM (inactive)
O=C(c1ccco1)N1CCN(C(=O)C2CCN(c3ncnc4c3nc3n4CCCCC3)CC2)CC1 | > 100 µM (inactive)
O=C(C1CCN(c2ncnc3c2nc2n3CCCCC2)CC1)N1CCN(c2ncccn2)CC1 | > 100 µM (inactive)
COc1ccccc1N1CCN(CCCNC(=O)C2CCCN(c3ncnc4c3nc3n4CCCCC3)C2)CC1 (configuration not stated) | > 100 µM (inactive)
O=C(C1CCN(c2ncnc3c2nc2n3CCCCC2)CC1)N1CCN(c2ccc(F)cc2)CC1 | > 100 µM (inactive)
Cc1ccc(C)c(N2CCN(CCCNC(=O)C3CCCN(c4ncnc5c4nc4n5CCCCC4)C3)CC2)c1 (configuration not stated) | > 100 µM (inactive)
O=C(C1CCN(c2ncnc3c2nc2n3CCCCC2)CC1)N1CCN(c2ccccn2)CC1 | > 100 µM (inactive)
CC1(C)Cc2c(sc(NC(=O)C(=O)N3CCCC3)c2C(N)=O)CO1 | > 100 µM (inactive)
O=C(CN1CCC(n2cnc3cc(F)ccc32)CC1)Nc1ccccc1Br | > 100 µM (inactive)
CC1(C)Cc2c(sc(NC(=O)C(=O)NCCN3CCOCC3)c2C(N)=O)CO1 | > 100 µM (inactive)
O=C(NCCCN1CCN(c2ccccc2)CC1)C1CCCN(c2ncnc3c2nc2n3CCCCC2)C1 (configuration not stated) | > 100 µM (inactive)
COC(=O)c1c(NC(=O)C(=O)NCC2CCCO2)sc2c1CC(C)(C)OC2 (configuration not stated) | > 100 µM (inactive)
COc1ccc(OC)c(NC(=O)CN2CCC(n3cnc4cc(F)ccc43)CC2)c1 | > 100 µM (inactive)
CC1(C)Cc2c(sc(NC(=O)C(=O)NCC3CCCO3)c2C(=O)O)CO1 (configuration not stated) | > 100 µM (inactive)
Cc1cccc(N2CCN(CCCNC(=O)C3CCCN(c4ncnc5c4nc4n5CCCCC4)C3)CC2C)c1 (configuration not stated) | > 100 µM (inactive)
O=C(CN1CCC(n2cnc3cc(F)ccc32)CC1)Nc1cccc(C(F)(F)F)c1 | > 100 µM (inactive)
O=C(C1CCN(c2ncnc3c2nc2n3CCCCC2)CC1)N1CCN(Cc2ccccc2)CC1 | > 100 µM (inactive)
O=C(CN1CCC(n2c(C(F)(F)F)nc3cc(F)ccc32)CC1)Nc1ccc2c(c1)OCO2 | > 100 µM (inactive)
COc1ccc(NC(=O)CN2CCC(n3c(C)nc4cc(F)ccc43)CC2)c(OC)c1 | > 100 µM (inactive)
CCOc1ccc(NC(=O)CN2CCC(n3cnc4cc(F)ccc43)CC2)cc1 | > 100 µM (inactive)
O=C(CN1CCC(n2cnc3cc(C(F)(F)F)ccc32)CC1)Nc1ccc2c(c1)OCCO2 | > 100 µM (inactive)
Cc1cccc(NC(=O)CN2CCC(n3cnc4cc(F)ccc43)CC2)c1C | > 100 µM (inactive)
CCOc1ccccc1NC(=O)CN1CCC(n2cnc3cc(F)ccc32)CC1 | > 100 µM (inactive)
Cc1nc2cc(F)ccc2n1C1CCN(CC(=O)Nc2ccccc2)CC1 | > 100 µM (inactive)
O=C(NCCCN1CCN(c2ccc(F)cc2)CC1)C1CCCN(c2ncnc3c2nc2n3CCCCC2)C1 (configuration not stated) | > 100 µM (inactive)
COc1ccc(OC)c(NC(=O)CN2CCC(n3c(C)nc4cc(F)ccc43)CC2)c1 | > 100 µM (inactive)
